Laboratory results reported in ChEMBL document CHEMBL1150289, “Petiolins A-C, phloroglucinol derivatives from Hypericum pseudopetiolatum var. kiusianum” (Bioorg Med Chem, 2008).
Values after ≈ are worked out from the molar mass of the structure shown.

Tests used:
KB = assay: Cytotoxicity against human KB cells; assay type: functional, cell-based
L1210 = assay: Cytotoxicity against mouse L1210 cells; assay type: functional, cell-based
[1] = test system: Trichophyton mentagrophytes; assay: Antifungal activity against Trichophyton mentagrophytes; assay type: functional

SMILES	IC50 (KB) [µg/mL]	IC50 (L1210) [µg/mL]	MIC [1] [µg/mL]
CC(C)=CCCC1(C)C=CC2=C(O1)C(C)(C)C(=O)C(C(=O)C(C)C)=C2O (configuration not stated) [PETIOLIN A]	4.8 (≈ 13.4 µM)	2.5 (≈ 6.97 µM)	–
CC(C)=CCC[C@@](C)(O)[C@@H]1CC2=C(O1)/C(=C(/O)C(C)C)C(=O)C(C)(C)C2=O [PETIOLIN C]	4.9 (≈ 13 µM)	3.3 (≈ 8.77 µM)	33.3 (≈ 88.4 µM)
CCC(C)C(=O)C1=C(O)C2=C(OC(C)(CCC=C(C)C)C=C2)C(C)(C)C1=O (configuration not stated) [PETIOLIN B]	9.6 (≈ 25.8 µM)	> 10	–
